Tested on: lung cancer cell lines (A549 and chemotherapy-resistant/metastatic H460)
Assay: XTT proliferation assay, lung cancer cells
Type: cell-based
Settings: DT 5, 10, 20 μM; gemcitabine hydrochloride and etoposide 10, 20 μM; 1-2 days; regardless of the dosage; also H460; FIG. 2
Procedure: The prostate cancer cells were plated at a density of 10^3 or 3×10^3 per well, in a 96-well plate, in a medium containing 10% Fetal bovine serum (FBS) (Gibco®, commercially available from Life Technologies, USA). Once the prostate cancer cells were attached to the culture dish, the 10% FBS medium was replaced with a second 10% FBS medium and each of the prostate cancer cell line was treated with 1, 5, and 10 μM of DT respectively for 1-2 days. The absorbance was measured using XTT assay kit (commercially available from Roche, Switzerland) at 492 nm using an ELISA reader (Bio-Rad Laboratories, USA). An in vitro evaluation of the effect of DT, gemcitabine (a chemotherapeutic agent) and etoposide (a chemotherapeutic agent) on the lung cancer cells was performed. The lung cancer cell lines, chemotherapy-resistant/metastatic H460 lung cancer cells (with pleural metastasis) and A549 lung cancer cells, were purchased from Bioresource Collection and Research Center, Taiwan. […] The absorbance was measured using XTT assay kit at 492 nm using an ELISA reader.

Row | Compound | inhibition of lung cancer proliferation, DT compared with gemcitabine and etoposide
1 | COc1cc([C@@H]2c3cc4c(cc3[C@@H](O[C@@H]3O[C@@H]5CO[C@@H](C)O[C@H]5[C@H](O)[C@H]3O)[C@H]3COC(=O)[C@H]23)OCO4)cc(OC)c1O [etoposide, reference compound] | DT is more effective than gemcitabine and etoposide
2 | Nc1ccn([C@@H]2O[C@H](CO)[C@@H](O)C2(F)F)c(=O)n1 [gemcitabine, reference compound] | DT is more effective than gemcitabine and etoposide
